# Biological target: T1, bromodomain BRD4 (44-168), BRD4 (333-460), and BRD4 (1-477 or 44-460) (Homo sapiens, UniProt O60885)
# T1 construct: BRD4(44-168), BRD4(333-460), BRD4(44-460), BRD4(1-477), O60885-1; fused on or other part: N-terminal BirA biotinylation motif, biotinylated; The TVMV-cleavable His6 tag is removed, except in some BRD4(44-460) runs detected with anti-His terbium cryptate
# Assay: Time Resolved Fluorescence Resonance Energy Transfer (TR-FRET) binding assay
# Conditions: one of the FRET assays described
row,IC50 [µM],SMILES
1,< 0.5,Cc1noc(C)c1-c1cc(C(N)=O)c2c3cc(C(=O)N4CC(C)OC(C)C4)ccc3n(Cc3ccncn3)c2c1 (centres unmarked) [Example 38]
2,< 0.05,"CNC(=O)c1cc(-c2c(C)noc2C)cc2c1c1cc(N(C)C)ccc1n2Cc1ccccc1 [Example 141, 9-benzyl-6-(dimethylamino)-2-(3,5-dimethyl-4-isoxazolyl)-N-methyl-9H-carbazole-4-carboxamide]"
3,< 0.05,"Cc1noc(C)c1-c1cc(C(N)=O)c2c3cc(N4CCOC4=O)ccc3n(Cc3ccc(Cl)cc3)c2c1 [Example 162, 9-(4-chlorobenzyl)-2-(3,5-dimethyl-4-isoxazolyl)-6-(2-oxo-1,3-oxazolidin-3-yl)-9H-carbazole-4-carboxamide]"
4,< 0.05,CNC(=O)c1cc(-c2c(C)noc2C)cc2c1c1cc(C(=O)N3CC(F)C3)ccc1n2CC1CC1 [Example 115]
5,< 0.05,"Cc1noc(C)c1-c1cc(C(N)=O)c2c3cc(C(=O)N4C[C@@H](C)O[C@@H](C)C4)ccc3n(CC3CCC3)c2c1 [Example 26, 9-(cyclobutylmethyl)-2-(3,5-dimethyl-4-isoxazolyl)-6-((cis-2,6-dimethyl-4-morpholinyl)carbonyl)-9H-carbazole-4-carboxamide]"
6,< 7.5,"Cc1noc(C)c1-c1ccc2c3cc(C(=O)N4C[C@@H](C)O[C@@H](C)C4)ccc3n(S(C)(=O)=O)c2c1 [Example 23, 2-(3,5-dimethyl-4-isoxazolyl)-6-((cis-2,6-dimethyl-4-morpholinyl)carbonyl)-9-(methylsulfonyl)-9H-carbazole]"
7,< 0.05,"CCNC(=O)c1cc(-c2c(C)noc2C)cc2c1c1cc(N3CCCOC3=O)ccc1n2C(C)c1ccccc1 (centres unmarked) [Example 167, 2-(3,5-dimethyl-4-isoxazolyl)-N-ethyl-6-(2-oxo-1,3-oxazinan-3-yl)-(1-phenylethyl)-9H-carbazole-4-carboxamide]"
8,< 0.05,Cc1noc(C)c1-c1cc(C(N)=O)c2c3cc(C(=O)N4CC(C)OC(C)C4)ccc3n(Cc3cscn3)c2c1 (centres unmarked) [Example 27]
9,< 0.5,Cc1noc(C)c1-c1ccc2c3cc(C(=O)N4CC(C)OC(C)C4)ccc3n(Cc3ccc(Cl)cc3)c2c1 (centres unmarked) [Example 12]
10,< 0.05,Cc1noc(C)c1-c1cc(C(N)=O)c2c3cc(C(=O)N4CC(C)OC(C)C4)ccc3n(Cc3ccccc3)c2c1 (centres unmarked) [Example 69]
11,< 0.05,"Cc1noc(C)c1-c1cc(C(N)=O)c2c3ccc(C(C)(C)O)cc3n(C(c3ccc(F)cc3)C3CCOCC3)c2c1 (single isomer, unassigned) [Example 219, 2-(Dimethyl-1,2-oxazol-4-yl)-9-[(4-fluorophenyl)(oxan-4-yl)methyl]-7-(2-hydroxypropan-2-yl)-9H-carbazole-4-carboxamide]"
12,< 0.05,Cc1noc(C)c1-c1cc(C(N)=O)c2c3cc(C(=O)N4CCOC(C)C4)ccc3n(Cc3ccccc3)c2c1 (centres unmarked) [Example 55]
13,< 0.05,Cc1noc(C)c1-c1cc(C(N)=O)c2c3cc(C(=O)N4CCC(F)C4)ccc3n(C(C)c3ccccc3)c2c1 (centres unmarked) [Example 84]
14,< 0.05,"CNc1ccc2c(c1)c1c(C(N)=O)cc(-c3c(C)noc3C)cc1n2Cc1ccccc1 [Example 130, 9-Benzyl-2-(3,5-dimethyl-4-isoxazolyl)-6-(methylamino)-9H-carbazole-4-carboxamide]"
15,< 0.05,"Cc1noc(C)c1-c1cc(C(N)=O)c2c3ccc(C(C)(C)O)cc3n(C(c3ccccc3)C3(F)CCC3)c2c1 (single isomer, unassigned) [Example 222, 2-(Dimethyl-1,2-oxazol-4-yl)-9-[(1-fluorocyclobutyl)(phenyl)methyl]-7-(2-hydroxypropan-2-yl)-9H-carbazole-4-carboxamide]"
16,< 0.5,"Cc1noc(C)c1-c1cc(C(N)=O)c2c3cc(C(=O)N4C[C@@H](C)O[C@@H](C)C4)ccc3n(C(=O)c3ccccc3)c2c1 [Example 46, 9-benzoyl-2-(3,5-dimethylisoxazol-4-yl)-6-(cis-2,6-dimethylmorpholine-4-carbonyl)-9H-carbazole-4-carboxamide]"
17,< 0.05,"CNC(=O)c1cc(-c2c(C)noc2C)cc2c1c1cc(N3CCCOC3=O)ccc1n2Cc1ccc(Cl)c(F)c1 [Example 172, 9-(4-chloro-3-fluorobenzyl)-2-(3,5-dimethyl-4-isoxazolyl)-N-methyl-6-(2-oxo-1,3-oxazinan-3-yl)-9H-carbazole-4-carboxamide]"
18,< 7.5,Cc1noc(C)c1-c1cc(C(N)=O)c2c3cc(C(=O)N4CCOCC4(C)C)ccc3n(Cc3ccccc3)c2c1 [Example 49]
19,< 0.05,Cc1noc(C)c1-c1cc(C(N)=O)c2c3cc(C(=O)N4CC(C)OC(C)C4)ccc3n(Cc3ccc(Cl)cc3)c2c1 (centres unmarked) [Example 35]
20,< 0.05,"Cc1noc(C)c1-c1cc(C(N)=O)c2c3cc(N4CCOC4=O)ccc3n(Cc3ccccc3)c2c1 [Example 161, 9-benzyl-2-(3,5-dimethyl-4-isoxazolyl)-6-(2-oxo-1,3-oxazolidin-3-yl)-9H-carbazole-4-carboxamide]"
21,< 0.05,"Cc1noc(C)c1-c1cc(C(N)=O)c2c3cc(C(=O)N4CC(F)(F)C4)ccc3n(Cc3ccc(Cl)cc3)c2c1 [Example 95, 9-(4-chlorobenzyl)-6-((3,3-difluoro-1-azetidinyl)carbonyl)-2-(3,5-dimethyl-4-isoxazolyl)-9H-carbazole-4-carboxamide]"
22,< 0.05,"Cc1noc(C)c1-c1cc(C(N)=O)c2c3cc(NS(C)(=O)=O)ccc3n(Cc3ccccc3)c2c1 [Example 143, 9-benzyl-2-(3,5-dimethyl-4-isoxazolyl)-6-(methylsulfonamido)-9H-carbazole-4-carboxamide]"
23,< 0.05,Cc1noc(C)c1-c1cc(C(N)=O)c2c3cc(C(=O)N4CCC(C)(C)C4)ccc3n(Cc3ccccc3)c2c1 [Example 58]
24,< 0.05,"COC(C)(C)c1ccc2c3c(C(N)=O)cc(-c4c(C)noc4C)cc3n([C@H](c3ccccc3)C3CCOCC3)c2c1 [Example 228, 2-(Dimethyl-1,2-oxazol-4-yl)-7-(2-methoxypropan-2-yl)-9-[(S)-oxan-4-yl(phenyl)methyl]-9H-carbazole-4-carboxamide]"
25,< 0.05,"Cc1noc(C)c1-c1cc(C(N)=O)c2c3ccc(C(C)(C)O)c(F)c3n(C(CCC(F)(F)F)c3ccccc3)c2c1 (single isomer, unassigned) [Example 231, 2-(dimethyl-1,2-oxazol-4-yl)-8-fluoro-7-(2-hydroxypropan-2-yl)-9-[4,4,4-trifluoro-1-phenylbutyl]-9H-carbazole-4-carboxamide]"
26,< 0.05,Cc1noc(C)c1-c1cc(C(N)=O)c2c3cc(C(=O)N4CCC(F)(F)C4)ccc3n(Cc3ccccc3)c2c1 [Example 61]
27,< 0.05,Cc1noc(C)c1-c1cc(C(N)=O)c2c3cc(C(=O)N4CC(F)C4)ccc3n(Cc3ccccc3)c2c1 [Example 65]
28,< 0.05,"Cc1noc(C)c1-c1cc(C(N)=O)c2c3cc(N4CC(C)(C)COC4=O)ccc3n(Cc3ccccc3)c2c1 [Example 160, 9-benzyl-2-(3,5-dimethyl-4-isoxazolyl)-6-(5,5-dimethyl-2-oxo-1,3-oxazinan-3-yl)-9H-carbazole-4-carboxamide]"
29,< 0.05,"Cc1noc(C)c1-c1cc(C(N)=O)c2c3ccc(C(C)(C)O)c(F)c3n(C(c3ccc(F)cc3)C3CCOCC3)c2c1 (single isomer, unassigned) [Example 223, 2-(Dimethyl-1,2-oxazol-4-yl)-8-fluoro-9-[(4-fluorophenyl)(oxan-4-yl)methyl]-7-(2-hydroxypropan-2-yl)-9H-carbazole-4-carboxamide]"

# Reference: patent publication US9492460B2, “Carbazole compounds useful as bromodomain inhibitors” (Bristol-Myers Squibb Company, priority 2013, dated 2016)
